Test results: patent US20100129370A1, “Trefoil Factors and Methods of Treating Proliferation Disorders Using Same” (priority 2004, published 2010)

Columns and labels:
Assay type in all cases: cell-based, human
TFF3 = TFF3 transcript levels (RT-PCR) in MCF7 cells treated with E2 or TAM; conditions: 10 nM E2 or 1 μM TAM, 24 hours, FIG. 7A
Method: RT-PCR was performed in a final volume of […] containing 0.2 μg of mRNA template, 0.6 μM primers, […] of enzyme mix, 400 μM of each dNTP, 10 reaction buffer, and 10 Q-Solution by use of the Qiagen One-step RT-PCR kit. RNA template was reverse-transcribed into cDNA for 30 min at 50° C.; Hotstart TaqDNA polymerase was activated by heating for 15 min at 95° C.; the denatured cDNA templates were amplified by the following cycles: 94° C./30 s, 55° C./30 s, and 72° C./60 s. A final extension was performed for 10 min at 72° C. In order to compare the PCR products semiquantitatively, 15-40 cycles of PCR (annealing temperature 55° C.) were performed to determine the linearity of the PCR amplification, and the amplified β-actin cDNA served as an internal control for cDNA quantity and quality. All RNA samples were treated with DNase I to avoid genomic DNA contaminations.
(§1) It was of interest to determine if the expression of TFF3 is related to estrogen receptor status. MCF7 cells were cultured in phenol red free RPMI 1640 containing 10% dextran coated charcoal stripped fetal bovine serum in a 6 well plate for 24 hours. Then the cells were changed to treatment media containing 10 nM E2 or 1 μM TAM and cultured for 24 hours in the same. Untreated cells cultured in serum free media acted as controls.

TFF3 promoter = TFF3 promoter activity in MCF-7 cells treated with E2 or TAM; conditions: 24 hours treatment, FIG. 7B, p<0.05
Method: as §1

TFF1 = TFF1 transcript levels (RT-PCR) in MCF7 cells treated with E2 or tamoxifen; conditions: 10 nM E2 or 1 μM TAM, 24 hours, FIG. 9A
Method: as §1, with “MCF7 cells produce endogenous levels” for “It was”, “TFF1.” for “interest to determine if the expression of TFF3 is related to estrogen receptor status.”

TFF1 promoter = TFF1 promoter activity in MCF7 cells treated with E2 or TAM; conditions: 24 hours treatment, FIG. 9B
Method: as §1, with “MCF7 cells produce endogenous levels” for “It was”, “TFF1.” for “interest to determine if the expression of TFF3 is related to estrogen receptor status.”

[1] = system: MCF7-VECTOR and MCF7-TFF3 cells; assay: Total cell number assay in estrogen-depleted media with estrogen supplement; conditions: estrogen supplemented to estrogen-depleted media, FIG. 10A
Method: (§2) MCF7-VECTOR and MCF7-TFF3 cells were cultured in phenol red free RPMI 1640 media with 10% dextran coated charcoal stripped fetal bovine serum.

MCF-TFF3 cells = assay: Soft agar colony formation in estrogen-depleted media with estrogen added; conditions: estrogen added to estrogen-depleted media, MCF-TFF3, FIG. 10B
Method: as §2

MCF-7-TamR cells = assay: Cell morphology assay, MCF-7-TamR cells; conditions: single agent, 48 h, FIG. 19
Method: Tamoxifen resistant MCF-7-Tam^R cells were plated at a concentration of 5×10^3 cells/well in 96-well plates in 100 μl of phenol red free RPMI 1640 medium containing dextran coated charcoal stripped 10% FBS. The plates were incubated at 37° C. for 24 h to allow the cells to reattach and re-equilibrate. Without removing any medium, anti-TFF3 antibody and/or tamoxifen were then added at twice the final concentration in a volume of 100 μl of the culture media. After 48 h images of cells were taken at 10× magnification under phase contrast microscope (Olympus IX70).
Cells were plated in phenol red free RPMI 1640 medium containing dextran coated charcoal stripped 10% FBS at 5×10^3 cells/100 μl/well in 96-well plates. After 24 hours incubation, anti-TFF3 antibody and/or tamoxifen (TAM) were then added at twice the final concentration in a volume of 100 μl. The cells were then taken photos using Olympus phase contrast microscope under 10× magnification. CK-09 is the pre-immune sera for the rabbit polyclonal antibodies of human TFF3 (anti-09).

CEACAM6 gene = assay: CEACAM6 luciferase reporter assay in MCF-7 cells; conditions: MCF-7 co-transfected with expression plasmid, 36 hours post transfection

Molecule | transcript levels of TFF3 (TFF3) | TFF3 promoter activity (TFF3 promoter) | transcript levels of TFF1 (TFF1) | TFF1 promoter activity (TFF1 promoter) | total cell number [1] | soft agar colony numbers (MCF-TFF3 cells) | cell morphology / cell death (MCF-7-TamR cells) | stimulation of CEACAM6 expression compared with control vector (CEACAM6 gene)
C[C@]12CC[C@@H]3c4ccc(O)cc4CC[C@H]3[C@@H]1CC[C@@H]2O [E2, estradiol] | very high increased transcript levels | increase | very significant increase | increase | brings back the total cell number to the control cells | further increases the colony numbers significantly |  | 
CC/C(=C(\c1ccccc1)c1ccc(OCCN(C)C)cc1)c1ccccc1 [TAM, tamoxifen] | significantly but not as high transcript levels | increase | very significant increase | increase |  |  | look healthy and similar to untreated control | 
TFF3: wild type human TFF3 expressed from plasmid in MCF-7 cells (EEYVGLSANQCAVPAKDRVDCGYPHVTPKECNNRGCCFDSRIPGVPWCFKPLQEAECTF) |  |  |  |  |  |  |  | two fold
